# Key:
# [1] = target: recombinant human LDHA protein (Homo sapiens, UniProt P00338); experiment: In vitro LDHA inhibitory assay (NADH consumption); type: biochemical
# HCT-116 cells = experiment: Mitochondrial membrane potential (TMRE staining), HCT-116; type: cell-based, human; settings: 30 µg/mL, 48 h
# Experimental: To assess mitochondrial integrity, TMRE staining was used to measure ΔΨm.
# The mitochondrial transmembrane potential was measured using a tetramethylrhodamine, ethyl ester (TMRE) mitochondrial membrane potential assay kit. […]
# medium served used as negative and positive controls, respectively. Percentages of viable cells […]
# wells (final concentration of 100 μg/mL), compared to the negative control, and expressed as mean value (%) ± SD from two replicates. Graphing dose-response curves representing the compound […]
# (HUVECs) at final concentration of 100 μg/mL . HUVECs were grown in Dulbecco’s Modified Eagle’s Medium supplemented with 10% FBS, 2 mM glutamine (Sigma Aldrich), 100 units/mL penicillin and […] streptomycin (Life Technologies; Paisley, UK).
# S3.2.5. Cell cycle assay.
# HCT-116 and LoVo cultures upon treatment with compound 3d. HCT-116 and LoVo carcinoma […]
# μg/mL for 48 h. […] Then, cells […]
# were fixed by mixing […] of 90% cold ethanol and stained with propidium iodide (PI) for 1 h at 37 °C. […]
# of stained cancerous cells were determined. […]
# carcinoma cells treated with compound 3d was assessed using the TMRE Mitochondrial Membrane […]
# for TMRE staining. TMRE was excited using a 488 nm laser and detected in the FL2 channel at 575 […]
# S3.2.9. Quantification of the Expression Levels of Bax, Bcl-2 and Caspase-3 Genes […]
compound,measurement,setting,value
"COc1cc(/C=N/c2ncnc3sc4c(c23)CCCC4)cc(OC)c1OC [Compound 3d, (E)-N-(5,6,7,8-Tetrahydrobenzo[4,5]thieno[2,3-d]pyrimidin-4-yl)-1-(3,4,5-trimethoxyphenyl)methanimine]",inhibition at 100 µg/mL,"[1]; 100 µg/mL, three replicates, read-out: Mean Inhibition Percent ± SD, LDHA",85.9 ± 2.97%
same,IC50,"[1]; three independent experiments, read-out: Mean IC50 µM ± SD, LDHA",149 ± 7.93 µM
same,"Reduction of mitochondrial membrane potential (ΔΨm), HCT-116 cells",HCT-116 cells,43.47 ± 0.81%
